Experiments:
Danio rerio embryo [1] = assay: EC20 Yolk sac size_Increase; higher = less potent; conditions: exposure time: 4 dpf
Protocol: (§1)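 Zebrafish embryos (UFZ-OBI strain) were exposed from 2 hpf for 48 h (2 dpf) or 96 h (4 dpf) at 28 °C; spontaneous tail coiling was scored at 25 hpf. Morphological features from automated image analysis (FishInspector), heart rate and locomotor response were fitted with drc models. Quantal endpoints were dichotomised at 2.5 SD from controls and fitted with a log-logistic model; heart rate, pigmentation and STC were normalised to the replicate control mean. Betamethasone was tested as betamethasone dipropionate, diflorasone as diflorasone diacetate.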

Danio rerio embryo [2] = assay: EC20 Body length_Decrease; higher = less potent
Protocol: as §1

Danio rerio embryo [3] = assay: EC20 Any effect; higher = less potent
Protocol: as §1

Danio rerio embryo [4] = assay: EC10 Pericard size_Increase; higher = less potent
Protocol: as §1

Danio rerio embryo [5] = assay: EC20 LMR dark; higher = less potent; conditions: exposure time: 4 dpf
Protocol: as §1

Danio rerio embryo [6] = assay: EC50 Otolith-eye distance_Decrease; conditions: exposure time: 4 dpf
Protocol: as §1

Danio rerio embryo [7] = assay: EC50 Curvature_Increase
Protocol: as §1

Danio rerio embryo [8] = assay: EC10 LMR dark; higher = less potent; conditions: exposure time: 4 dpf
Protocol: as §1

Danio rerio embryo [9] = assay: EC20 Pericard size_Increase; higher = less potent
Protocol: as §1

Danio rerio embryo [10] = assay: EC10 Otolith-eye distance_Decrease; higher = less potent; conditions: exposure time: 4 dpf
Protocol: as §1

Danio rerio embryo [11] = assay: EC10 Curvature_Increase; higher = less potent
Protocol: as §1

Danio rerio embryo [12] = test system: Danio rerio embryo
Protocol: as §1

Danio rerio embryo [13] = assay: EC20 Eye-jaw distance_Decrease; higher = less potent; conditions: exposure time: 4 dpf
Protocol: as §1

Danio rerio embryo [14] = assay: EC20 Bladder size_Decrease; higher = less potent; conditions: exposure time: 4 dpf
Protocol: as §1

Danio rerio embryo [15] = assay: EC20 Otolith-eye distance_Decrease; higher = less potent; conditions: exposure time: 4 dpf
Protocol: as §1

Danio rerio embryo [16] = assay: EC10 Bladder size_Decrease; higher = less potent; conditions: exposure time: 4 dpf
Protocol: as §1

Danio rerio embryo [17] = assay: EC20 Curvature_Increase; higher = less potent
Protocol: as §1

Danio rerio embryo [18] = assay: EC50 Pericard size_Increase
Protocol: as §1

Danio rerio embryo [19] = assay: EC50 Body length_Decrease
Protocol: as §1

Danio rerio embryo [20] = assay: EC50 Yolk sac size_Increase; conditions: exposure time: 4 dpf
Protocol: as §1

Danio rerio embryo [21] = assay: EC10 Body length_Decrease; higher = less potent
Protocol: as §1

Danio rerio embryo [22] = conditions: exposure time: 4 dpf
Protocol: as §1

Danio rerio embryo [23] = assay: EC10 Any effect; higher = less potent
Protocol: as §1

Danio rerio embryo [24] = assay: spontaneous tail coiling frequency (coils/min/embryo); higher = more spontaneous movement; conditions: 25 hpf
Protocol: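 Spontaneous tail coilings of zebrafish embryos exposed from 2 hpf were recorded at 24-25 hpf in 1-min videos and detected by a KNIME workflow from grey-value variance. Betamethasone was tested as the dipropionate, diflorasone as the diacetate.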

Danio rerio embryo [25] = assay: EC10 Yolk sac size_Increase; higher = less potent; conditions: exposure time: 4 dpf
Protocol: as §1

Danio rerio embryo [26] = assay: EC50 Eye-jaw distance_Decrease; conditions: exposure time: 4 dpf
Protocol: as §1

Danio rerio embryo [27] = assay: EC50 Bladder size_Decrease; conditions: exposure time: 4 dpf
Protocol: as §1

Danio rerio embryo [28] = assay: EC10 Eye-jaw distance_Decrease; higher = less potent; conditions: exposure time: 4 dpf
Protocol: as §1

CC(C)(C)C(O)/C(=C/c1ccc(Cl)cc1Cl)n1cncn1 (stereo not drawn) [Diniconazole]
Conditions	EC10 Bladder size Decrease [µM]	EC10 Eye-jaw distance Decrease [µM]	EC10 LMR dark [µM]	EC10 Otolith-eye distance Decrease [µM]	EC10 Yolk sac size Increase [µM]	EC20 Bladder size Decrease [µM]	EC20 Eye-jaw distance Decrease [µM]	EC20 LMR dark [µM]	EC20 Otolith-eye distance Decrease [µM]	EC20 Yolk sac size Increase [µM]	EC50 Bladder size Decrease [µM]	EC50 Eye-jaw distance Decrease [µM]	EC50 LMR dark [µM]	EC50 Otolith-eye distance Decrease [µM]	EC50 Yolk sac size Increase [µM]
Danio rerio embryo [1]	–	–	–	–	–	–	–	–	–	1.74	–	–	–	–	–
Danio rerio embryo [5]	–	–	–	–	–	–	–	2.86	–	–	–	–	–	–	–
Danio rerio embryo [6]	–	–	–	–	–	–	–	–	–	–	–	–	–	5.4	–
Danio rerio embryo [8]	–	–	2.25	–	–	–	–	–	–	–	–	–	–	–	–
Danio rerio embryo [10]	–	–	–	3.74	–	–	–	–	–	–	–	–	–	–	–
Danio rerio embryo [13]	–	–	–	–	–	–	2.57	–	–	–	–	–	–	–	–
Danio rerio embryo [14]	–	–	–	–	–	1.92	–	–	–	–	–	–	–	–	–
Danio rerio embryo [15]	–	–	–	–	–	–	–	–	4.28	–	–	–	–	–	–
Danio rerio embryo [16]	1.71	–	–	–	–	–	–	–	–	–	–	–	–	–	–
Danio rerio embryo [20]	–	–	–	–	–	–	–	–	–	–	–	–	–	–	3.05
Danio rerio embryo [22]	–	–	–	–	–	–	–	–	–	–	–	–	4.3	–	–
Danio rerio embryo [25]	–	–	–	–	1.26	–	–	–	–	–	–	–	–	–	–
Danio rerio embryo [26]	–	–	–	–	–	–	–	–	–	–	–	2.91	–	–	–
Danio rerio embryo [27]	–	–	–	–	–	–	–	–	–	–	2.35	–	–	–	–
Danio rerio embryo [28]	–	2.39	–	–	–	–	–	–	–	–	–	–	–	–	–

Conditions	EC10 Any effect [µM]	EC10 Body length Decrease [µM]	EC10 Curvature Increase [µM]	EC10 Pericard size Increase [µM]	EC20 Any effect [µM]	EC20 Body length Decrease [µM]	EC20 Curvature Increase [µM]	EC20 Pericard size Increase [µM]	EC50 Any effect [µM]	EC50 Body length Decrease [µM]	EC50 Curvature Increase [µM]	EC50 LMR ligth decrease [µM]	EC50 Pericard size Increase [µM]	EC50 Pigmentation increase [µM]	spontaneous tail coiling frequency
Danio rerio embryo [2], exposure time: 2 dpf	–	–	–	–	–	7.36	–	–	–	–	–	–	–	–	–
Danio rerio embryo [2], exposure time: 4 dpf	–	–	–	–	–	6.12	–	–	–	–	–	–	–	–	–
Danio rerio embryo [3], exposure time: 2 dpf	–	–	–	–	3	–	–	–	–	–	–	–	–	–	–
Danio rerio embryo [3], exposure time: 4 dpf	–	–	–	–	1.89	–	–	–	–	–	–	–	–	–	–
Danio rerio embryo [4], exposure time: 2 dpf	–	–	–	1.54	–	–	–	–	–	–	–	–	–	–	–
Danio rerio embryo [4], exposure time: 4 dpf	–	–	–	3.8	–	–	–	–	–	–	–	–	–	–	–
Danio rerio embryo [7], exposure time: 2 dpf	–	–	–	–	–	–	–	–	–	–	7.07	–	–	–	–
Danio rerio embryo [7], exposure time: 4 dpf	–	–	–	–	–	–	–	–	–	–	6.35	–	–	–	–
Danio rerio embryo [9], exposure time: 2 dpf	–	–	–	–	–	–	–	2.51	–	–	–	–	–	–	–
Danio rerio embryo [9], exposure time: 4 dpf	–	–	–	–	–	–	–	3.81	–	–	–	–	–	–	–
Danio rerio embryo [11], exposure time: 2 dpf	–	–	3.94	–	–	–	–	–	–	–	–	–	–	–	–
Danio rerio embryo [11], exposure time: 4 dpf	–	–	2.76	–	–	–	–	–	–	–	–	–	–	–	–
Danio rerio embryo [12], exposure time: 2 dpf	–	–	–	–	–	–	–	–	3.77	–	–	–	–	–	–
Danio rerio embryo [12], exposure time: 4 dpf	–	–	–	–	–	–	–	–	2.61	–	–	2.31	–	11.8	–
Danio rerio embryo [17], exposure time: 2 dpf	–	–	–	–	–	–	4.89	–	–	–	–	–	–	–	–
Danio rerio embryo [17], exposure time: 4 dpf	–	–	–	–	–	–	3.75	–	–	–	–	–	–	–	–
Danio rerio embryo [18], exposure time: 2 dpf	–	–	–	–	–	–	–	–	–	–	–	–	5.78	–	–
Danio rerio embryo [18], exposure time: 4 dpf	–	–	–	–	–	–	–	–	–	–	–	–	3.83	–	–
Danio rerio embryo [19], exposure time: 2 dpf	–	–	–	–	–	–	–	–	–	8.59	–	–	–	–	–
Danio rerio embryo [19], exposure time: 4 dpf	–	–	–	–	–	–	–	–	–	6.97	–	–	–	–	–
Danio rerio embryo [21], exposure time: 2 dpf	–	6.73	–	–	–	–	–	–	–	–	–	–	–	–	–
Danio rerio embryo [21], exposure time: 4 dpf	–	5.67	–	–	–	–	–	–	–	–	–	–	–	–	–
Danio rerio embryo [23], exposure time: 2 dpf	2.63	–	–	–	–	–	–	–	–	–	–	–	–	–	–
Danio rerio embryo [23], exposure time: 4 dpf	1.56	–	–	–	–	–	–	–	–	–	–	–	–	–	–
Danio rerio embryo [24], 1.13 µM	–	–	–	–	–	–	–	–	–	–	–	–	–	–	1.89
Danio rerio embryo [24], 1.7 µM	–	–	–	–	–	–	–	–	–	–	–	–	–	–	2.58
Danio rerio embryo [24], 2.55 µM	–	–	–	–	–	–	–	–	–	–	–	–	–	–	2.31
Danio rerio embryo [24], 3.8 µM	–	–	–	–	–	–	–	–	–	–	–	–	–	–	2.05
Danio rerio embryo [24], 5.75 µM	–	–	–	–	–	–	–	–	–	–	–	–	–	–	2.87
Danio rerio embryo [24], 7.66 µM	–	–	–	–	–	–	–	–	–	–	–	–	–	–	3.42
Danio rerio embryo [24], 9.2 µM	–	–	–	–	–	–	–	–	–	–	–	–	–	–	3.35

— the supplement of paper PMC9013687
